Tests used:
sEH = conditions: non-selective pan-esterase inhibitor used at 100 μM; ref [18]; cited from earlier work
Horse sEH [1] = molecular target: T1, Horse sEH (Equus caballus, UniProt F7C407); assay: Primary screen (end point) of the sEH inhibitor library, PHOME substrate; assay type: biochemical; conditions: [I] = 100 nM, primary end-point screening
Experimental: (§1) Primary screening of the library was performed with an inhibitor concentration of 100 nM using PHOME as substrate ([22]). […] The plates were then mixed and incubated at 30°C for 5 min. Across each plate, 30 μL of the working substrate solution (270 μL of 5 mM PHOME solution in DMSO diluted with 3,680 μL of buffer) were added quickly to yield [S]final: 50 μM. Each plate was further incubated at room temperature (horse sEH: 60 min; cat sEH: 45 min; dog sEH: 30 min).

Dog sEH [2] = molecular target: T2, Dog sEH (Canis lupus familiaris, UniProt A0A8I3NJL8); assay: as above; assay type: biochemical; conditions: [I] = 100 nM, primary end-point screening
T2 sequence (A0A8I3NJL8 1-556): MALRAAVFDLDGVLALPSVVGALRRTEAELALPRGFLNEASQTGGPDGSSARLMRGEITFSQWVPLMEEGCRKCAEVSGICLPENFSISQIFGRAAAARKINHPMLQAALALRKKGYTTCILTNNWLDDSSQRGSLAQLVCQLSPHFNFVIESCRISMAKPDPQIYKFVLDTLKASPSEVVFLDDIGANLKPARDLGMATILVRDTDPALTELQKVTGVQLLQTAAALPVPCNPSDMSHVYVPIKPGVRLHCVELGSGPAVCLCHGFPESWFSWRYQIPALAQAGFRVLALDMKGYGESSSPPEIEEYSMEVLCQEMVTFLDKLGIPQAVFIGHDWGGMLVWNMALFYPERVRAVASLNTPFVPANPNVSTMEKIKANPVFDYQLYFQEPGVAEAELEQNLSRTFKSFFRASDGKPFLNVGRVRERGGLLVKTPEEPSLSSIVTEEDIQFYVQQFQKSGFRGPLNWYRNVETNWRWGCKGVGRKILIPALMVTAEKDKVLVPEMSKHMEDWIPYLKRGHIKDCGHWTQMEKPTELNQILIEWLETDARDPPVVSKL
Experimental: as §1

Cat sEH [3] = molecular target: T3, Cat sEH (Felis catus, UniProt A0ABI7ZL20); assay: as above; assay type: biochemical; conditions: read-out: Cat sEH Inhibition (%) P.
Experimental: as §1

Dog sEH [4] = molecular target: T2, Dog sEH; assay: Secondary screen (kinetic mode), PHOME substrate; assay type: biochemical; conditions: [I] = 100 nM, secondary kinetic mode screening
Cat sEH [5] = molecular target: T3, Cat sEH; assay: Secondary screen (kinetic mode), PHOME substrate; assay type: biochemical; conditions: read-out: Cat sEH Inhibition (%) S.
Horse sEH [6] = molecular target: T1, Horse sEH; assay: Secondary screen (kinetic mode), PHOME substrate; assay type: biochemical; conditions: [I] = 100 nM, secondary kinetic mode screening
Microsomal stability [7] = assay type: in vitro ADME, dog; conditions: 1 μM inhibitor, microsomes 1 mg/mL, 37°C, 30 min, compound remaining, average ± SD (n = 3)
Experimental: (§2) The stability of the sEH inhibitors was determined using liver microsomes as described ([24]). […] After 30 min at 37°C, the reaction was stopped by the addition of one volume of methanol containing CUDA (200 nM) as surrogate. The amount of remaining inhibitor was determined by LC/MS/MS. The stability is reported as a percentage of compound remaining after 30 min in these conditions.
(§3) Mass spectrometry analyses were performed using a Waters Quattro Premier triple quadrupole tandem mass spectrometer (Micromass, Manchester, UK) interfaced to an electrospray ionization (ESI) source. The MS was coupled with a Waters Acquity UPLC (Waters, Milford, MA, USA). A Varian Pursuit5 C18 RP HPLC column (150 mm × 2.1 mm, particle size 5 μm) was used to separate the analytes. […] The source and the desolvation temperatures were set at 120 and 300°C, respectively. […] Dwell time was set to 0.1 s.

Microsomal stability [8] = assay type: in vitro ADME, cat
Experimental: as §2, §3

[9] = molecular target: T4, sEH activity from liver cytosol of Hamster (Mesocricetus auratus, UniProt A0A1U7QV09); assay: sEH inhibition potency (IC50), radioactive assay with [3H]t-DPPO, liver cytosol; assay type: biochemical; conditions: [3H]t-DPPO ([S]final = 5 μM) as substrate
T4 sequence (A0A1U7QV09 1-554): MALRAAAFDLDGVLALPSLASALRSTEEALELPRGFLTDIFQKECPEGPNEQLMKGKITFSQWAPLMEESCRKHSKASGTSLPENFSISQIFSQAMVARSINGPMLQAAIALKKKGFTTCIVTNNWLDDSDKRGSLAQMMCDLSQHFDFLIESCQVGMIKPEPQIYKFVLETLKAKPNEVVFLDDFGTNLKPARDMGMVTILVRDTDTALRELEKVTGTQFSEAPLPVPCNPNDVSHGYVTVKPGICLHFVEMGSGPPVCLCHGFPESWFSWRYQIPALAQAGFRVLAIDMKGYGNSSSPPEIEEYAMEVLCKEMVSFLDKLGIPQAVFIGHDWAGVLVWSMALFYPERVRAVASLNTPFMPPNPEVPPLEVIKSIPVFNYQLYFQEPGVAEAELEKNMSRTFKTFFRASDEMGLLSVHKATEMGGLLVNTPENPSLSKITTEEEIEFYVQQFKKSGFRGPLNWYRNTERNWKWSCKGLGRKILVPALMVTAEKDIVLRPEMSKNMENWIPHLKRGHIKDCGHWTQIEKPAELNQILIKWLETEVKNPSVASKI
Excerpt: (§4) Fresh liver tissues samples (5–30 g) were collected promptly after death from healthy adult cat, dog and horse euthanized for reasons unrelated to this study, and whose bodies were given to science by the owners in line with federal regulations and protocol approved by the Institutional Animal Care and Use Committee at University of California Davis. Similarly, tissues from the other animals tested herein were collected from healthy animals immediately after being slaughter at the university abattoir. Because no animals were directly used or killed for this study, sample collections were exempted from approval by the Institutional Animal Care and Use Committee of the University of California Davis and Michigan State University. […] The tissues were flash-frozen in liquid nitrogen following removal, and then kept at −80°C until used. After thawing on ice, the samples were homogenized in chilled sodium phosphate buffer (20 mM pH 7.4) containing 5 mM EDTA, 1 mM DTT and 1 mM PMSF (tissue weight:buffer volume ratio 1:4). These homogenates were centrifuged at 100,000 g for 60 min at 4°C. The supernatant (the cytosolic fraction) was separated from the pellet, aliquoted and flash frozen in liquid nitrogen, then kept frozen at −80°C until usage.
(§5) The IC50 values reported herein were determined using either a fluorescent based assay (CMNPC as substrate) for purified enzyme preparations or a radioactive based assay ([^3H]t-DPPO as substrate) for crude enzyme preparations ([20]). The fluorescent assay was used with the purified proteins. […] The substrate (CMNPC) was then added ([S]final = 5 μM). […] The radioactive […] assay was used with the liver crude extracts. Extracts were incubated with inhibitors ([I]final = 1–1,000 nM) at 30° C for 5 min in sodium phosphate buffer (pH 7.4) containing 0.1 mg/mL of BSA and 1% of DMSO, prior to substrate introduction ([^3H]t-DPPO [S]final: 50 μM; ~12,000 dpm/assay). The enzymes were incubated at 30°C for 10 min, and the reaction was quenched by the addition of 60 μL methanol and 200 μL isooctane, which extracts the remaining epoxide from the aqueous phase. […] Assays were performed in triplicate.

[10] = molecular target: sEH activity from liver cytosol of Cow (Bos taurus, UniProt Q17QK4); assay: as above; assay type: biochemical; conditions: [3H]t-DPPO ([S]final = 5 μM) as substrate
Excerpt: as §4, §5

Microsomal stability [11] = assay type: in vitro ADME, horse; conditions: 1 μM inhibitor, microsomes 1 mg/mL, 37°C, 30 min, compound remaining, average ± SD (n = 3)
Experimental: as §2, §3

T1 sequence (F7C407 entry or part of it): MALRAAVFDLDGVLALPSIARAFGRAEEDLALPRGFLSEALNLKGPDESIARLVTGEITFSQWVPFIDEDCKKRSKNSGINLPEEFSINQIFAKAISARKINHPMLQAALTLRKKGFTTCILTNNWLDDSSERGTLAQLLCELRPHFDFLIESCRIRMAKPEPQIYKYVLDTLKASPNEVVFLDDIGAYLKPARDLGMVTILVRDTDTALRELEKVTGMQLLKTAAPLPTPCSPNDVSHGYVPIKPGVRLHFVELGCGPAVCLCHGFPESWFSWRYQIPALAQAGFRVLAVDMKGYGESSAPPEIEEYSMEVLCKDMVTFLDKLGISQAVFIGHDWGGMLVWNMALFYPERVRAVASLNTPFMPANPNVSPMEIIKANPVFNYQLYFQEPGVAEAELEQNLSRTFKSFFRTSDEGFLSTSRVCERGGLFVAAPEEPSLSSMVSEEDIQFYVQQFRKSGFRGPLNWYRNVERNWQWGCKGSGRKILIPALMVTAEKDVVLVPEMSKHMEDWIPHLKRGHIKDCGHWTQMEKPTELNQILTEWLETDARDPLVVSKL
T3 sequence (A0ABI7ZL20 entry or part of it): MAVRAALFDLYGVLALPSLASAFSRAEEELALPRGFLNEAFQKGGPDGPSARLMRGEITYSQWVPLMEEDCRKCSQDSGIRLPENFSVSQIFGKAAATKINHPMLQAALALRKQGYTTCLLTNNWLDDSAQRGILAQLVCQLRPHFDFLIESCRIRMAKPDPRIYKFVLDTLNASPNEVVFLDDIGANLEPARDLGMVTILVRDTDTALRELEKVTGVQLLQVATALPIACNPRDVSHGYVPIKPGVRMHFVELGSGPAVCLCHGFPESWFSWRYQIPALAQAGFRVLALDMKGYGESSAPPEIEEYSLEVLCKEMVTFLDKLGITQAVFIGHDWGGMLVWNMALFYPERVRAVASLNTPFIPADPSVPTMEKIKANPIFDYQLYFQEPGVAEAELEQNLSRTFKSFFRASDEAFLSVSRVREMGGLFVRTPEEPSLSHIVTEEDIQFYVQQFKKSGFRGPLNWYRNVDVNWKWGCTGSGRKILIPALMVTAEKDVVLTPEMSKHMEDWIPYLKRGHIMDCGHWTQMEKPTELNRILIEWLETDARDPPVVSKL
sEH activity from liver cytosol of Cow, sequence (Q17QK4 entry or part of it): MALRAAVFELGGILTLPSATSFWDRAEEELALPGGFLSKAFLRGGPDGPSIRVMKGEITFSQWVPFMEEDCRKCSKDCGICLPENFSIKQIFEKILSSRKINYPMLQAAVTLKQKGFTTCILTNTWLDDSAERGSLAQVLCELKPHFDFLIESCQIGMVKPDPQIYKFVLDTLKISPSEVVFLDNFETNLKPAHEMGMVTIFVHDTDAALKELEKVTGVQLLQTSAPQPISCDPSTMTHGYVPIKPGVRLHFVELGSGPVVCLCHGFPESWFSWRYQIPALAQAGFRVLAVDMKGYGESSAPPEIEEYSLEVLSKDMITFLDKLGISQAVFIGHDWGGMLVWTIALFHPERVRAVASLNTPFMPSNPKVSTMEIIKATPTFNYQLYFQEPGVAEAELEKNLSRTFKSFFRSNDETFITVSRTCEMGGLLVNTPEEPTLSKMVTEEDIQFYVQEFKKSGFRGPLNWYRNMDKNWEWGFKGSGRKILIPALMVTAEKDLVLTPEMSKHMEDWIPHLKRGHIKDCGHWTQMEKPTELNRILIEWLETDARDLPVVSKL

For CCOP(=O)(OCC)Oc1ccc([N+](=O)[O-])cc1 [Paraoxon], the “inhibition of sEH” value (sEH) is given as “does not inhibit sEH”.

For CC1CCCCC1NC(=O)Nc1ccccc1 (centres unmarked) [Siduron], the “Horse sEH Inhibition (%) P.” value (Horse sEH [1]) was 92%, the “Dog sEH Inhibition (%) P.” value (Dog sEH [2]) was less than 90% and the inhibition at 0.1 µM (Cat sEH [3]) was 93%. The “Dog sEH Inhibition (%) S.” value (Dog sEH [4]) was 43%, the inhibition at 0.1 µM (Cat sEH [5]) was 77% and the “Horse sEH Inhibition (%) S.” value (Horse sEH [6]) was 81%.

For O=C(O)CCCCCCCCCCCNC(=O)NC12CC3CC(CC(C3)C1)C2 [compound 700], the “Stability (% without microsomes) Dog liver microsomes NADPH +” value (Microsomal stability [7]; with NADPH) was 66 ± 9%, the “Stability (% without microsomes) Dog liver microsomes NADPH –” value (Microsomal stability [7]; without NADPH) was 94 ± 6% and the inhibition at 0.1 µM (Horse sEH [1]; read-out: Horse sEH Inhibition (%) P.) was 94%. It also gave an inhibition at 0.1 µM (Dog sEH [2]; read-out: Dog sEH Inhibition (%) P.) of 92%, an inhibition at 0.1 µM (Dog sEH [4]; read-out: Dog sEH Inhibition (%) S.) of 80% and an inhibition at 0.1 µM (Horse sEH [6]; read-out: Horse sEH Inhibition (%) S.) of 85%. For the same compound, the “Stability (% without microsomes) Cat liver microsomes NADPH +” value (Microsomal stability [8]; 1 μM inhibitor, microsomes 1 mg/mL, with NADPH, 37°C, 30 min, compound remaining, average ± SD (n = 3)) was 28 ± 3%, the “Stability (% without microsomes) Cat liver microsomes NADPH –” value (Microsomal stability [8]; 1 μM inhibitor, microsomes 1 mg/mL, without NADPH, 37°C, 30 min, compound remaining, average ± SD (n = 3)) was 105 ± 11% and the “metabolism in cat liver microsomes (in words)” value (Microsomal stability [8]; in the presence of NADPH) was “quickly transformed”. The IC50 [9] was 5 nM, the IC50 [10] was 6 nM and the “Stability (% without microsomes) Horse liver microsomes NADPH +” value (Microsomal stability [11]; with NADPH) was 96 ± 9%. For the same compound, the “Stability (% without microsomes) Horse liver microsomes NADPH –” value (Microsomal stability [11]; without NADPH) was 114 ± 15%.

From PMC7479175, “Selection of Potent Inhibitors of Soluble Epoxide Hydrolase for Usage in Veterinary Medicine” (Frontiers in Veterinary Science, 2020)
